Experimental data as given in patent US10336697B2, “Spiro[cyclobutane-1,3′-indolin]-2′-one derivatives as bromodomain inhibitors” (Orion Corporation, priority 2015, dated 2019).

These molecules were tested against Bet BRD4 full length bromo-domain protein (Homo sapiens, UniProt O60885) (assay: Bet bromodomain TR-FRET assay (displacement of acetyl histone peptide)). Details: Bet BRD4 full length bromodomain protein, 300 nM acetyl histone peptide substrate, read-out: IC50.
Type: binding

Structure (SMILES)	IC50 [nM]
CN1CCC(Oc2cc(NS(=O)(=O)c3ccccc3Cl)cc3c2NC(=O)C32CCC2)CC1 [Compound 133, 2-Chloro-N-(7′-((1-methylpiperidin-4-yl)oxy)-2′-oxospiro[cyclobutane-1,3′-indolin]-5′-yl)benzenesulfonamide]	< 600
Cc1nc(CNc2cc(NS(=O)(=O)c3ccc(F)cc3F)cc3c2NC(=O)C32CCC2)c[nH]1 [Compound 30, 2,4-Difluoro-N-(7′-(((2-methyl-1H-imidazol-4-yl)methyl)amino)-2′-oxospiro[cyclobutane-1,3′-indolin]-5′-yl)benzenesulfonamide]	< 600
O=C1Nc2c(OCc3ccc(F)cn3)cc(NS(=O)(=O)c3ccc(Cl)cc3F)cc2C12CCC2 [Compound 147, 4-Chloro-2-fluoro-N-(7′-((5-fluoropyridin-2-yl)methoxy)-2′-oxospiro[cyclobutane-1,3′-indolin]-5′-yl)benzenesulfonamide]	< 600
O=C(Nc1cc(C2CC2)c2c(c1)C1(CCC1)C(=O)N2)c1ccc(F)cc1 [Compound 75a, N-(7′-Cyclopropyl-2′-oxospiro[cyclobutane-1,3′-indolin]-5′-yl)-4-fluorobenzamide]	600 to 1000
CCOc1ccccc1S(=O)(=O)Nc1cc(C(=O)NC2CCN(C)CC2)c2c(c1)C1(CCC1)C(=O)N2 [Compound 84, 5′-(2-Ethoxyphenylsulfonamido)-N-(1-methylpiperidin-4-yl)-2′-oxospiro[cyclobutane-1,3′-indoline]-7′-carboxamide]	600 to 1000
CCC(=O)N1CCC(Nc2cc(NS(=O)(=O)c3ccc(F)cc3F)cc3c2NC(=O)C32CCC2)CC1 [Compound 21, 2,4-Difluoro-N-(2′-oxo-7′-((1-propionylpiperidin-4-yl)amino)spiro[cyclobutane-1,3′-indolin]-5′-yl)benzenesulfonamide]	< 600
C=C(c1nccs1)c1cc(NS(=O)(=O)c2ccccc2OC)cc2c1NC(=O)C21CCC1 [Compound 172, 2-Methoxy-N-(2′-oxo-7′-(1-(thiazol-2-yl)vinyl)spiro[cyclobutane-1,3′-indolin]-5′-yl)benzenesulfonamide]	< 600
CN1CCC(Nc2cc(NS(=O)(=O)c3ccc(F)cc3F)cc3c2NC(=O)C32CCC2)CC1 [Compound 17, 2,4-Difluoro-N-(7′-((1-methylpiperidin-4-yl)amino)-2′-oxospiro[cyclobutane-1,3′-indolin]-5′-yl)benzenesulfonamide]	< 600
O=C1Nc2c(NCc3cnc[nH]3)cc(NS(=O)(=O)c3ccc(F)cc3F)cc2C12CCC2 [Compound 25, N-(7′-(((1H-imidazol-5-yl)methyl)amino)-2′-oxospiro [cyclo butane-1,3′-indolin]-5′-yl)-2,4-difluorobenzene sulfonamide]	< 600
COc1ccccc1NC(=O)Nc1cc(C2CC2)c2c(c1)C1(CCC1)C(=O)N2 [Compound 121, 1-(7′—Cyclopropyl-2′-oxospiro[cyclobutane-1,3′-indolin]-5′-yl)-3-(2-methoxyphenyl)urea]	< 600
Cn1cnc(CNc2cc(NS(=O)(=O)c3ccc(F)cc3F)cc3c2NC(=O)C32CCC2)c1 [Compound 31, 2,4-Difluoro-N-(7′-(((1-methyl-1H-imidazol-4-yl)methyl)amino)-2′-oxospiro[cyclobutane-1,3′-indolin]-5′-yl)benzenesulfonamide]	< 600
COc1cc(F)ccc1S(=O)(=O)Nc1cc(Cc2ccccc2)c2c(c1)C1(CCC1)C(=O)N2 [Compound 94, N-(7′-benzyl-2′-oxospiro[cyclobutane-1,3′-indolin]-5′-yl)-4-fluoro-2-methoxybenzenesulfonamide]	< 600
COc1ccccc1S(=O)(=O)Nc1cc(Cc2ccccc2F)c2c(c1)C1(CCC1)C(=O)N2 [Compound 9, N-(7′-(2-fluorobenzyl)-2′-oxospiro[cyclobutane-1,3′-indolin]-5′-yl)-2-methoxybenzenesulfonamide]	< 600
COc1ccccc1S(=O)(=O)Nc1cc(C(C)c2ccccc2)c2c(c1)C1(CCC1)C(=O)N2 (single isomer, unassigned) [Compound 114, 2-Methoxy-N-(2′-oxo-7′-(1-phenylethyl)spiro [cyclobutane-1,3′-indolin]-5′-yl)benzenesulfonamide]	< 600
COc1ccc(S(=O)(=O)Nc2cc(C3CCNCC3)c3c(c2)C2(CCC2)C(=O)N3)c(OC)c1 [Compound 92, 2,4-Dimethoxy-N-(2′-oxo-7′-(piperidin-4-yl)spiro[cyclobutane-1,3′-indolin]-5′-yl)benzenesulfonamide]	< 600
COc1ccccc1S(=O)(=O)Nc1cc(N)c2c(c1)C1(CCC1)C(=O)N2 [Compound 12, N-(7′-amino-2′-oxospiro[cyclobutane-1,3′-indolin]-5′-yl)-2-methoxy-benzenesulfonamide]	< 600
COc1ccccc1S(=O)(=O)Nc1cc(OC(C)c2ccccn2)c2c(c1)C1(CCC1)C(=O)N2 (single isomer, unassigned) [Compound 151, 2-Methoxy-N-(2′-oxo-7′-(1-(pyridin-2-yl)ethoxy)spiro[cyclobutane-1,3′-indolin]-5′-yl)benzenesulfonamide]	< 600
O=C(NC1CCOCC1)c1cc(NS(=O)(=O)c2ccc(F)cc2F)cc2c1NC(=O)C21CCC1 [Compound 50, 5′-(2,4-Difluorophenylsulfonamido)-2′-oxo-N-(tetrahydro-2H-pyran-4-yl)spiro[cyclobutane-1,3′-indoline]-7′-carboxamide]	< 600
CN1CCC(NC(=O)c2cc(NS(=O)(=O)c3ccc(F)cc3F)cc3c2NC(=O)C32CCC2)CC1 [Compound 56, 5′-(2,4-Difluorophenylsulfonamido)-N-(1-methylpiperidin-4-yl)-2′-oxospiro[cyclobutane-1,3′-indoline]-7′-carboxamide]	< 600
COc1ccccc1S(=O)(=O)Nc1cc(OCc2cccnc2)c2c(c1)C1(CCC1)C(=O)N2 [Compound 157, 2-Methoxy-N-(2′-oxo-7′-(pyridin-3-ylmethoxy)spiro[cyclobutane-1,3′-indolin]-5′-yl)benzenesulfonamide]	< 600
CN1CCC(NC(=O)c2cc(N(C)S(=O)(=O)c3ccc(F)cc3F)cc3c2NC(=O)C32CCC2)CC1 [Compound 72, 5′-((2,4-Difluoro-N-methylphenyl)sulfonamido)-N-(1-methylpiperidin-4-yl)-2′-oxospiro[cyclobutane-1,3′-indoline]-7′-carboxamide]	> 1000
CN1CCC(NC(=O)c2cc(NS(=O)(=O)c3ccc(Cl)cc3F)cc3c2NC(=O)C32CCC2)CC1 [Compound-211, 5′-((4-Chloro-2-fluorophenyl)sulfonamido)-N-(1-methylpiperidin-4-yl)-2′-oxospiro[cyclobutane-1,3′-indoline]-7′-carboxamide]	600 to 1000
O=C1Nc2c(OCCc3ccccn3)cc(NS(=O)(=O)c3ccc(Cl)cc3F)cc2C12CCC2 [Compound 159, 4-Chloro-2-fluoro-N-(2′-oxo-7′-(2-(pyridin-2-yl)ethoxy)spiro[cyclobutane-1,3′-indolin]-5′-yl)benzenesulfonamide]	< 600
COc1ccccc1S(=O)(=O)Nc1cc(C(C)C2CCCN(C)C2)c2c(c1)C1(CCC1)C(=O)N2 (single isomer, unassigned) [Compound 173, 2-Methoxy-N-(7′-(1-(1-methylpiperidin-3-yl)ethyl)-2′-oxospiro[cyclobutane-1,3′-indolin]-5′-yl)benzenesulfonamide]	> 1000
